Drawing on PubChem BioAssay AID330 (DTP/NCI, 2004), this text covers T/C for 3 molecules.

Inconclusive results and toxic doses are left out.

For the test, the system named is P388 leukemia ip, CD2F1 mice, survival T/C. In words: NCI In Vivo Anticancer Drug Screen. Data for tumor model P388 Leukemia (intraperitoneal) in CD2F1 (CDF1) mice. The conditions noted are these: endpoint: median survival time, higher = longer survival. The procedure, abridged:
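Mice carrying the transplanted tumor received test compound or vehicle. Survival was recorded in each group, and the value is the treated-group measurement divided by that of the vehicle-treated control group.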

Regarding `COc1ccc(CC2C(=O)NC(C)C(=O)N(C)C3C(=O)N(C)C(Cc4ccc(O)c(c4)Oc4ccc(cc4)C3O)C(=O)NC(C)C(=O)NC(C)C(=O)N2C)cc1` (stereo unspecified), the T/C (dose: 0.03 mg/kg/injection, schedule: Q01DX009 (ip), vehicle: Klucel (hydroxypropylcellulose) (HPC)) is 94 % of control; the T/C (dose: 0.03 mg/kg/injection, schedule: Q01DX009 (ip), vehicle: saline + alcohol) is 100 % of control; the T/C (dose: 0.03 mg/kg/injection, schedule: Q03HX024 (ip), vehicle: saline + alcohol) is 123 % of control; the T/C (dose: 0.06 mg/kg/injection, schedule: Q01DX009 (ip), vehicle: Klucel (hydroxypropylcellulose) (HPC)) is 102 % of control; the T/C (dose: 0.06 mg/kg/injection, schedule: Q01DX009 (ip), vehicle: saline + alcohol) was 106 % of control; the T/C (dose: 0.06 mg/kg/injection, schedule: Q03HX008 (ip), vehicle: saline + alcohol) was 118 % of control. For the same molecule, the T/C (dose: 0.06 mg/kg/injection, schedule: Q03HX016 (ip), vehicle: saline + alcohol) is 122 % of control; the T/C (dose: 0.12 mg/kg/injection, schedule: Q01DX009 (ip), vehicle: Klucel (hydroxypropylcellulose) (HPC)) was 104 % of control; the T/C (dose: 0.12 mg/kg/injection, schedule: Q01DX009 (ip), vehicle: saline + alcohol) is 111 % of control; the T/C (dose: 0.13 mg/kg/injection, schedule: Q03HX024 (ip), vehicle: other) is 103 % of control; the T/C (dose: 0.13 mg/kg/injection, schedule: Q03HX024 (ip), vehicle: saline + alcohol) was 153 % of control; the T/C (dose: 0.25 mg/kg/injection, schedule: Q01DX005 (ip), vehicle: saline) was 116 % of control. Moreover, the T/C was 100 % of control (dose: 0.25 mg/kg/injection, schedule: Q01DX005 (iv), vehicle: other); 107 % of control (dose: 0.25 mg/kg/injection, schedule: Q01DX005 (iv), vehicle: saline); 113 % of control (dose: 0.25 mg/kg/injection, schedule: Q01DX009 (ip), vehicle: Klucel (hydroxypropylcellulose) (HPC)); 95 % of control (dose: 0.25 mg/kg/injection, schedule: Q01DX009 (sc), vehicle: other); 120 % of control (dose: 0.25 mg/kg/injection, schedule: Q03HX008 (ip), vehicle: other); 100 % of control (dose: 0.25 mg/kg/injection, schedule: Q03HX016 (ip), vehicle: other). Moreover, the T/C reads like this: (dose: 0.25 mg/kg/injection, schedule: Q03HX024 (ip), vehicle: other) 91 % of control; (dose: 0.25 mg/kg/injection, schedule: Q03HX024 (ip), vehicle: saline + alcohol) 157 % of control; (dose: 0.5 mg/kg/injection, schedule: Q01DX005 (iv), vehicle: other) 98 % of control; (dose: 0.5 mg/kg/injection, schedule: Q01DX005 (iv), vehicle: saline) 114 % of control; (dose: 0.5 mg/kg/injection, schedule: Q01DX009 (ip), vehicle: clinical formulation) 157 % of control; (dose: 0.5 mg/kg/injection, schedule: Q01DX009 (ip), vehicle: water) 154 % of control. Moreover, the T/C was 98 % of control (dose: 0.5 mg/kg/injection, schedule: Q01DX009 (oral), vehicle: other); 99 % of control (dose: 0.5 mg/kg/injection, schedule: Q01DX009 (sc), vehicle: other); 150 % of control (dose: 0.5 mg/kg/injection, schedule: Q03HX016 (ip), vehicle: saline + alcohol); 172 % of control (dose: 0.5 mg/kg/injection, schedule: Q03HX024 (ip), vehicle: saline + alcohol); 122 % of control (dose: 1.0 mg/kg/injection, schedule: Q01DX001 (ip), vehicle: other); 103 % of control (dose: 1.0 mg/kg/injection, schedule: Q01DX001 (oral), vehicle: other). Besides, the T/C (dose: 1.0 mg/kg/injection, schedule: Q01DX005 (ip), vehicle: saline) was 158 % of control; the T/C (dose: 1.0 mg/kg/injection, schedule: Q01DX005 (iv), vehicle: other) is 99 % of control; the T/C (dose: 1.0 mg/kg/injection, schedule: Q01DX009 (ip), vehicle: Klucel (hydroxypropylcellulose) (HPC)) was 113 % of control; the T/C (dose: 1.0 mg/kg/injection, schedule: Q01DX009 (ip), vehicle: clinical formulation) was 198 % of control; the T/C (dose: 1.0 mg/kg/injection, schedule: Q01DX009 (ip), vehicle: other) was 167 % of control; the T/C (dose: 1.0 mg/kg/injection, schedule: Q01DX009 (ip), vehicle: saline + alcohol) was 172 % of control. In addition, the T/C runs as follows: (dose: 1.0 mg/kg/injection, schedule: Q01DX009 (ip), vehicle: water) 166 % of control; (dose: 1.0 mg/kg/injection, schedule: Q01DX009 (oral), vehicle: other) 95 % of control; (dose: 1.0 mg/kg/injection, schedule: Q01DX009 (sc), vehicle: other) 95 % of control; (dose: 2.0 mg/kg/injection, schedule: Q01DX001 (oral), vehicle: other) 97 % of control; (dose: 2.0 mg/kg/injection, schedule: Q01DX005 (ip), vehicle: other) 167 % of control; (dose: 2.0 mg/kg/injection, schedule: Q01DX005 (ip), vehicle: saline) 166 % of control. Besides, the T/C was 195 % of control (dose: 2.0 mg/kg/injection, schedule: Q01DX009 (ip), vehicle: clinical formulation); 183 % of control (dose: 2.0 mg/kg/injection, schedule: Q01DX009 (ip), vehicle: other); 184 % of control (dose: 2.0 mg/kg/injection, schedule: Q01DX009 (ip), vehicle: saline + alcohol); 184 % of control (dose: 2.0 mg/kg/injection, schedule: Q01DX009 (ip), vehicle: water); 122 % of control (dose: 2.0 mg/kg/injection, schedule: Q01DX009 (oral), vehicle: other); 155 % of control (dose: 2.0 mg/kg/injection, schedule: Q04DX003 (ip), vehicle: other). For the same molecule, the T/C was 100 % of control (dose: 4.0 mg/kg/injection, schedule: Q01DX001 (oral), vehicle: other); 165 % of control (dose: 4.0 mg/kg/injection, schedule: Q01DX005 (ip), vehicle: other); 116 % of control (dose: 4.0 mg/kg/injection, schedule: Q01DX009 (ip), vehicle: Klucel (hydroxypropylcellulose) (HPC)); 94 % of control (dose: 4.0 mg/kg/injection, schedule: Q01DX009 (ip), vehicle: other); 103 % of control (dose: 4.0 mg/kg/injection, schedule: Q01DX009 (ip), vehicle: saline + alcohol); 122 % of control (dose: 4.0 mg/kg/injection, schedule: Q01DX009 (oral), vehicle: other). For the same molecule, the T/C runs as follows: (dose: 4.0 mg/kg/injection, schedule: Q04DX003 (ip), vehicle: other) 155 % of control; (dose: 4.0 mg/kg/injection, schedule: Q08DX002 (ip), vehicle: other) 152 % of control; (dose: 8.0 mg/kg/injection, schedule: Q01DX001 (oral), vehicle: other) 104 % of control; (dose: 8.0 mg/kg/injection, schedule: Q01DX009 (oral), vehicle: other) 92 % of control; (dose: 8.0 mg/kg/injection, schedule: Q04DX003 (ip), vehicle: other) 163 % of control; (dose: 16.0 mg/kg/injection, schedule: Q01DX001 (oral), vehicle: other) 95 % of control. Besides, the T/C reads like this: (dose: 500.0 micrograms/kg/injection, schedule: Q01DX009 (ip), vehicle: saline with Tween-80) 150 % of control; (dose: 1000.0 micrograms/kg/injection, schedule: Q01DX009 (ip), vehicle: saline with Tween-80) 177 % of control; (dose: 2000.0 micrograms/kg/injection, schedule: Q01DX009 (ip), vehicle: saline with Tween-80) 152 % of control.

Regarding `c1ccc(N/N=C2/c3ccccc3CC23OC3c2ccccc2)cc1` (stereo unspecified), the T/C (dose: 25.0 mg/kg/injection, schedule: Q01DX009 (ip), vehicle: Klucel (hydroxypropylcellulose) (HPC)) is 90 % of control; the T/C (dose: 50.0 mg/kg/injection, schedule: Q01DX009 (ip), vehicle: Klucel (hydroxypropylcellulose) (HPC)) is 90 % of control; the T/C (dose: 100.0 mg/kg/injection, schedule: Q01DX009 (ip), vehicle: Klucel (hydroxypropylcellulose) (HPC)) is 88 % of control; the T/C (dose: 200.0 mg/kg/injection, schedule: Q01DX009 (ip), vehicle: Klucel (hydroxypropylcellulose) (HPC)) was 87 % of control; the T/C (dose: 400.0 mg/kg/injection, schedule: Q01DX009 (ip), vehicle: Klucel (hydroxypropylcellulose) (HPC)) was 88 % of control.

For `CC(=O)c1nc2c(N)nc(N)nc2nc1C`, the T/C by setting is: (dose: 25.0 mg/kg/injection, schedule: Q04DX003 (ip), vehicle: saline with Tween-80) 96 % of control; (dose: 50.0 mg/kg/injection, schedule: Q04DX003 (ip), vehicle: saline with Tween-80) 96 % of control; (dose: 100.0 mg/kg/injection, schedule: Q04DX003 (ip), vehicle: saline with Tween-80) 96 % of control.
